Test results taken from ChEMBL document CHEMBL1138675 (J Med Chem, 2004).

Experiments:
[1] = target: T1, Melatonin receptor type 1B (Homo sapiens) (UniProt P49286)
T1 sequence (whole entry): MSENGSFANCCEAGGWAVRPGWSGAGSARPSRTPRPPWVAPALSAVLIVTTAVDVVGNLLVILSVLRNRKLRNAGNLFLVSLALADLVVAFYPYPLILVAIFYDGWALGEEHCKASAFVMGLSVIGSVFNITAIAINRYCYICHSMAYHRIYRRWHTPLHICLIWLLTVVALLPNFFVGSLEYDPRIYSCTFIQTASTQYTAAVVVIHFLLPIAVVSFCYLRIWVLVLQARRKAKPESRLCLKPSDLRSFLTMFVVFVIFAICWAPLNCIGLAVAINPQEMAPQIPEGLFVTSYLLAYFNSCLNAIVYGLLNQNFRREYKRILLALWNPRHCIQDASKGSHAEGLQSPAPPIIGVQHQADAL

[2] = target: T2, Melatonin receptor type 1B (Homo sapiens, UniProt P49286); assay: Binding affinity for human recombinant Melatonin receptor type 2 expressed in NIH3T3 cells; type: cell-based
T2 sequence (P49286 whole entry): T1 sequence (whole entry)

[3] = target: T3, Melatonin receptor type 1A (Homo sapiens, UniProt P48039); assay: Binding affinity for human recombinant Melatonin receptor type 1 expressed in NIH3T3 cells; type: cell-based
T3 sequence (P48039 whole entry): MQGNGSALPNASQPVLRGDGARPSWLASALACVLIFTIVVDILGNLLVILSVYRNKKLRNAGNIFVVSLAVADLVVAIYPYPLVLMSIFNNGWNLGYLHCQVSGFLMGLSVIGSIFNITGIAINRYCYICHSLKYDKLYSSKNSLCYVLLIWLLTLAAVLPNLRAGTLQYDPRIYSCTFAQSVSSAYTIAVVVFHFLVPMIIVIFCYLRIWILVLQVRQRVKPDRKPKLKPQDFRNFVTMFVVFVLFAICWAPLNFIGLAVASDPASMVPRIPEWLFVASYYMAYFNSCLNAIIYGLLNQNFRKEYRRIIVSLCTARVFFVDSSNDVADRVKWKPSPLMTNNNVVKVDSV

[4] = target: T3, Melatonin receptor type 1A

Q: What does the source list for `CC(=O)NCC1=Cc2ccccc2Cc2ccccc21`?
A: IAr [1]: -0.09; Ki [2]: 85.1 nM; Ki [3]: 550 nM; IAr [4]: 0.02

Q: Which IAr [1] does the source give for `CC(=O)NCC1Cc2ccccc2Cc2ccccc21` (configuration not stated) here?
A: -0.32

Q: And the Ki [2]?
A: 30.2 nM

Q: And the Ki [3]?
A: 240 nM

Q: And the IAr [4]?
A: 0.03

Q: For `COc1ccc2c(c1)C(CCNC(C)=O)Cc1ccccc1C2` (configuration not stated), which IAr [1] is on record?
A: 0.01

Q: What about the Ki [2] of the same molecule?
A: 39.8 nM

Q: And the Ki [3]?
A: 162 nM

Q: And the IAr [4]?
A: -0.07

Q: What does the source list for `COc1ccc2c(c1)C(CNC(C)=O)Cc1ccccc1C2=O` (configuration not stated)?
A: IAr [1]: -0.08; Ki [2]: 0.891 nM; Ki [3]: 3.02 nM; IAr [4]: -0.14

Q: How did the IAr [1] turn out when `CCC(=O)NCC1Cc2ccccc2Cc2ccc(OC)cc21` (configuration not stated) was run?
A: -0.15

Q: And the Ki [2]?
A: 0.162 nM

Q: What about the Ki [3] of the same molecule?
A: 1.35 nM

Q: And the IAr [4]?
A: -0.1

Q: Which results are given for `CCC(=O)NCCN1c2ccccc2C=Cc2ccc(OC)cc21`?
A: IAr [1]: -0.1; Ki [2]: 38 nM; Ki [3]: 57.5 nM; IAr [4]: -0.04

Q: For `CCCC(=O)NCC1Cc2ccccc2Cc2ccc(OC)cc21` (configuration not stated), which IAr [1] is on record?
A: -0.17

Q: What about the Ki [2] of the same molecule?
A: 0.245 nM

Q: What about the Ki [3] of the same molecule?
A: 1.29 nM

Q: And the IAr [4]?
A: -0.09

Q: `COc1ccc2[nH]cc(CCNC(C)=O)c2c1` was tested. Which IAr [4] did it give?
A: 1

Q: Which Ki [2] does the source give for `CC(=O)NCC(=O)N1c2ccccc2C=Cc2ccccc21` here?
A: 11000 nM

Q: What about the Ki [3] of the same molecule?
A: 20400 nM

Q: What does the source list for `CC(=O)NCCC1Cc2ccccc2Cc2ccccc21` (configuration not stated)?
A: IAr [1]: 0.69; Ki [2]: 89.1 nM; Ki [3]: 389 nM; IAr [4]: 0.21

Q: `COc1ccc2c(c1)C(CNC(C)=O)Cc1ccccc1C2` (configuration not stated) was tested. Which IAr [1] did it give?
A: -0.55

Q: What about the Ki [2] of the same molecule?
A: 0.661 nM

Q: And the Ki [3]?
A: 6.17 nM

Q: And the IAr [4]?
A: -0.18

Q: What does the source list for `CCC(=O)NCCN1c2ccccc2CCc2ccccc21`?
A: IAr [1]: 0.13; Ki [2]: 200 nM; Ki [3]: 550 nM; IAr [4]: 0.03

Q: Which IAr [1] does the source give for `CC(=O)NCCN1c2ccccc2C=Cc2ccccc21` here?
A: -0.03

Q: What about the Ki [2] of the same molecule?
A: 126 nM

Q: And the Ki [3]?
A: 112 nM

Q: What about the IAr [4] of the same molecule?
A: 0.01
